Laboratory results published in patent publication US12459941B2, “Tricyclic IRAK inhibitors” (Rigel Pharmaceuticals, Inc., priority 2022, dated 2025).
Counter-ions that a name gives are not always drawn.

Experiments:
IRAK1 = IRAK1 (Homo sapiens, UniProt P51617); assay: IRAK1 ADP-Glo Kinase assay; format: biochemical; conditions: 8 pt curve
IRAK4 = target: T1, IRAK4 (Homo sapiens, UniProt Q9NWZ3); assay: IRAK4 ADP-Glo assay; format: biochemical; conditions: 8 pt curve; read-out: IRAK4 ADP-Glo Kinase, 8 pt
T1 construct: purchased Signalchem I12-10G-20
T1 sequence (Q9NWZ3 1-460): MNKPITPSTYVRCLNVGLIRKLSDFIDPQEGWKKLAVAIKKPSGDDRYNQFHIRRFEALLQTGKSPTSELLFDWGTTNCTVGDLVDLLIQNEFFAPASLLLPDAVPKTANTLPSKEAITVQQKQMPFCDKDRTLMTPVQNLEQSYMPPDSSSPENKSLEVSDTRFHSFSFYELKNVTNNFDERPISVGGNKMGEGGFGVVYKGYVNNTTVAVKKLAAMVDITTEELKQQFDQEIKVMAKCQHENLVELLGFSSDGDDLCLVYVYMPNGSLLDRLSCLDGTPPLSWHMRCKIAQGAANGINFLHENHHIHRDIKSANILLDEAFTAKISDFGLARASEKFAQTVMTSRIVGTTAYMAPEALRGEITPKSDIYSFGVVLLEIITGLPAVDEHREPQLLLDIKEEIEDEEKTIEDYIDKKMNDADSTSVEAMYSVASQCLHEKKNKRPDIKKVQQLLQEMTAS
Description: IRAK4 Kinase Enzyme (Signalchem, I12-10G-20); 0.1M DTT (Signalchem, D86-09B); MBP Substrate (Signalchem, M42-51N); ADP Glo (Promega, V9101); 1M MgCl2 (Teknova, M03304); 1M Tris-HCl pH7.4 (Teknova, T1074); BSA (Sigma (A3059); Distilled H2O
Wallac Victor2 1420 Multilabel Counter
The ADP-Glo™ reagents were thawed at ambient temperature. The Kinase Detection Reagent was prepared by mixing kinase detection buffer with the lyophilized kinase detection substrate, and set aside.
A stock volume of 5× Reaction Kinase Buffer was made with a final concentration of 100 mM MgCl2, 200 mM Tris-HCl, and 0.5 mg/ml of BSA, in distilled H2O with a final pH7.4. A 2× working stock volume of Reaction Kinase Buffer was made containing a final concentration of […].
The components of IRAK4 Enzyme were thawed on ice. Diluted IRAK4 in 1× Kinase Reaction Buffer (diluted from 2× buffer) was prepared at […]. A […] working stock ATP Assay Solution was prepared in 1× Kinase Reaction Buffer (diluted from 2× buffer).
The compound was diluted in DMSO from 250 µM in 4-fold series dilutions for 8 points. Then diluted 1:5 in 2× Reaction Buffer in a 96 well plate. 1.01 was transferred to a 384 well plate in duplicate. […] 1 μl of 1 mg/ml stock solution of MBP substrate was added NOTE: MBP can be combined with ATP mix with equal volume and then added at 2 d/well. Final reaction volume was 5 μl.
The plate was centrifuged and the reaction mixture was incubated at room temperature for 60 minutes or at 30° C. for 30 minutes.
The reaction was terminated and the remaining ATP was depleted by adding 5 μl of ADP-Glo™ Reagent. The 384-well plate was centrifuged and then the reaction mixture was incubated for another 40 minutes at ambient temperature.
10 μl of the Kinase Detection Reagent was added. The plate was centrifuged and then the reaction mixture was incubated for another 30 minutes at ambient temperature.
The 384-well reaction plate was read using the WALLAC plate reader (Luminescence 0.1s).

TNFa [1] = assay: TNFa ELISA, PBMC, Resiquimod (R848) stimulated; format: cell-based; conditions: 10 pt curve
TNFa [2] = assay: TNFa ELISA, THP1-IFNy, LTA stimulated; format: cell-based; conditions: 10 pt curve
IL23-p19 = assay: LPS induced IL23p19 in THP-1 cells (IFNγ primed), sandwich ELISA; format: cell-based; conditions: Homo sapiens; THP-1 cells primed with IFNγ, LPS 1 μg/mL, 10 pt curve; read-out: IL23-p19 ELISA, THP1-IFNy, LPS, 10 pt
Source text: LPS Induced IL23p19 in THP-1 Cells (with IFNγ Primed) Assay
THP-1 Cells (ATCC, Cat #TIB-202), Dimethyl Sulfoxide (DMSO) (Sigma-Aldrich, Cat #D2650), RPMI 1640 (Cellgro, Cat #10-040-CM), Fetal Bovine Serum (Sigma, Cat #F4135), Albumin From Bovine Serum (BSA) (Sigma-Aldrich, Cat #A7906), LPS (Serotype K-235, Sigma, Product Number L 2143), IFNγ (Peprotech, Cat #300-02), Capture antibody: Human IL-23p19 ELISA (e-Bioscience, Cat. #14-7238-85), Detection antibody: Primary Mouse Biotinylated anti-human IL-12(p40/p70) (e-Bioscience, Cat. #13-7129-85), Secondary HRP-conjugated Streptavidin (R&D Systems, Cat #DY998), 1×PBST Washing Buffer (PBS-Tween tablet) (VWR International, Cat #80058-558), ELISA Blocking Buffer (PBS with 1% BSA), ELISA Dilution Buffer (PBS with 1% BSA), 384 Well Flat-Bottom, MaxiSorp Black Immuno Plates (Thermo Scientific, Cat #12-565-346), 384 Well Flat-Bottom, White Tissue Culture Plates (Thermo Scientific, Cat #12-565-343), Super Signal ELISA Pico Chemiluminescent Substrate (Thermo Scientific, Cat #37070), Cell Titer Glo reagent (Promega, Cat #G7573), Positive control, IKK2VI inhibitor (Calbiochem, Cat #401483), AquaMax 4000 plate washer (Molecular Devices), Luminometer, Wallac Victor2 1420 Multilabel Counter.
On day 1, 50K/well THP-1 cells were seeded and primed with IFNγ (50 ng/mL) in 384-well plates for about 18 hours in RPMI media with 10% FBS. On day 2, the compound was serially diluted in DMSO from 5 mM in 3-fold dilutions, and then diluted 1:125 in RPMI media with 10% FBS. 50 μL/well 2× compound was added to 50 μL/well THP-1 cells (with IFNγ primed) in duplicate in 384 well tissue culture plates. The cells were pre-incubated with compound for 1 hour at 37° C., 5% CO2 before addition of 10 μL/well 11×LPS to give a final concentration of 1 μg/mL LPS. Day 3, after stimulation for 18 hours at 37° C., 5% CO2, the assay plate was centrifuged and 70 μL/well supernatant was harvested. IL-23p19 protein in 70 μL/well of supernatant was measured by sandwich ELISA, and 25 μl/well Cell Titer Glo reagent was added to the remaining cells to measure compound toxicity.
Human IL-23p19 Sandwich ELISA:
Maxisorp immuno ELISA plates were pre-coated with 25 μL/well of anti-IL-23p19 capture antibody (2.5 ug/mL) in PBS overnight at room temperature. After washing with 1×PBST, the plates were blocked using 100 μL/well of 1% BSA in PBS for 2 hours at room temperature. The plates were washed three times with 1×PBST and 70 μL/well supernatant were added. The plates were incubated at room temperature for 2 hours with shaking and washed three times with 1×PBST. 25 μL/well of biotin labeled anti-IL-12(p40/p70) detection antibody (100 ng/mL) in PBS with 1% BSA was added and the plates were incubated at room temperature for 2 hours with shaking. After washing three times with 1×PBST, 25 μL/well of streptavidin-HRP (1:200) in PBS with 1% BSA was added and the plates were incubated at room temperature for 20 minutes with shaking. The plates were washed three times with 1×PBST and 25 μL/well of Super Signal ELISA Pico Chemiluminescent Substrate were added. The plates were read with a luminometer, and the chemiluminescence values were entered into Athena (Rigel) for curve fitting, EC50 calculation, and database storage.

TNFa [3] = assay: TNFa ELISA, dendritic cells, Gardiquimod stimulated; format: cell-based; conditions: Homo sapiens, Dendritic cell, 10 pt curve

IRAK1, sequence (P51617 whole entry): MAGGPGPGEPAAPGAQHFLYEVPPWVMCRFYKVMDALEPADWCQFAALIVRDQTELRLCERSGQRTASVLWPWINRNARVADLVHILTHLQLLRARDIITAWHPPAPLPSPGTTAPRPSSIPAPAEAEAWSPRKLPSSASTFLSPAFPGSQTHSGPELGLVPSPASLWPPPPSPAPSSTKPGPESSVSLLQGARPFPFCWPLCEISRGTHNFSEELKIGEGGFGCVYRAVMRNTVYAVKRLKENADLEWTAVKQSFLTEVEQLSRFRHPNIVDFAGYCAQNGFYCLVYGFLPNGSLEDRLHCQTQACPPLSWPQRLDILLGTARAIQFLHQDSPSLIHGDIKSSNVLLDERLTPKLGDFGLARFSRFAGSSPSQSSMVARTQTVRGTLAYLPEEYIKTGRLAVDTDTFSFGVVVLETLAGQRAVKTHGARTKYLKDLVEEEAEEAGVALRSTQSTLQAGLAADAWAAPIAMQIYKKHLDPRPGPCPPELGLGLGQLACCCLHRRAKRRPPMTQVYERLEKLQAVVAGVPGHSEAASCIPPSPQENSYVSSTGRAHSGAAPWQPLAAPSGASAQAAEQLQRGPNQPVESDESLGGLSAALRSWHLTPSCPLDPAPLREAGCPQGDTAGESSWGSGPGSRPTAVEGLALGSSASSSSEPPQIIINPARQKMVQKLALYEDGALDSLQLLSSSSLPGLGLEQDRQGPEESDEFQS

IC50 (IRAK1) [nM] | IC50 (IRAK4) [nM] | EC50 (TNFa [1]; formic acid salt) [nM] | EC50 (TNFa [2]) [nM] | EC50 (TNFa [1]) [nM] | EC50 (IL23-p19) [nM] | EC50 (TNFa [3]) [nM] | Structure (SMILES)
3840 | 6.7 | 135 | 274 | – | – | – | Cc1c[nH]c(=O)c2cc3ccnc(OC[C@@H]4CCC(=O)N4)c3cc12 [I-2, (S)-4-methyl-6-((5-oxopyrrolidin-2-yl)methoxy)pyrido[3,4-g]isoquinolin-1(2H)-one formic acid salt]
6260 | 55.9 | – | – | 304 | 8470 | – | O=C1CC[C@@H](COc2nccc3cc4c(=O)[nH]cc(C5CCCC5)c4cc23)N1 [I-13, (S)-4-cyclopentyl-6-((5-oxopyrrolidin-2-yl)methoxy)pyrido[3,4-g]isoquinolin-1(2H)-one]
4770 | 4.9 | – | – | 187 | 956 | 196 | O=C1CC[C@@H](COc2nccc3cc4c(=O)[nH]cc(C5CC5)c4cc23)N1 [I-14, (S)-4-cyclopropyl-6-((5-oxopyrrolidin-2-yl)methoxy)pyrido[3,4-g]isoquinolin-1(2H)-one]
8370 | 6.2 | – | – | 68.3 | 501 | – | CC(C)c1c[nH]c(=O)c2cc3ccnc(OC[C@@H]4CCC(=O)N4)c3cc12 [I-15, (S)-4-isopropyl-6-((5-oxopyrrolidin-2-yl)methoxy)pyrido[3,4-g]isoquinolin-1(2H)-one]
10600 | 21.4 | – | – | 360 | 16100 | 607 | O=C1CC[C@@H](COc2nccc3cc4c(=O)[nH]cc(CC(F)F)c4cc23)N1 [I-17, (S)-4-(2,2-difluoroethyl)-6-((5-oxopyrrolidin-2-yl)methoxy)pyrido[3,4-g]isoquinolin-1(2H)-one]
– | 303 | – | – | 6970 | 38700 | – | CC(C)(O)c1c[nH]c(=O)c2cc3ccnc(OC[C@@H]4CCC(=O)N4)c3cc12 [I-20, (S)-4-(2-hydroxypropan-2-yl)-6-((5-oxopyrrolidin-2-yl)methoxy)pyrido[3,4-g]isoquinolin-1(2H)-one]
777 | 5.8 | – | – | 422 | 778 | 1500 | O=C1CC[C@@H](COc2nccc3cc4c(=O)[nH]cc(C#CCO)c4cc23)N1 [I-21, (S)-4-(3-hydroxyprop-1-yn-1-yl)-6-((5-oxopyrrolidin-2-yl)methoxy)pyrido[3,4-g]isoquinolin-1(2H)-one]
9080 | 10.4 | – | – | 4470 | 6980 | 2010 | O=C1CC[C@@H](COc2nccc3cc4c(=O)[nH]cc(CCO)c4cc23)N1 [I-22, (S)-4-(2-hydroxyethyl)-6-((5-oxopyrrolidin-2-yl)methoxy)pyrido[3,4-g]isoquinolin-1(2H)-one]
– | 55.7 | – | – | 283 | 377 | 316 | CC#Cc1c[nH]c(=O)c2cc3ccnc(OC[C@@H]4CCC(=O)N4)c3cc12 [I-24, (S)-6-((5-oxopyrrolidin-2-yl)methoxy)-4-(prop-1-yn-1-yl)pyrido[3,4-g]isoquinolin-1(2H)-one]
– | 69.2 | – | – | 392 | 79.6 | 6220 | Cc1c[nH]c(=O)c2cc3ccnc(OC[C@@H]4CCC(=O)N4)c3cc12 [I-25, (S)-4-methyl-6-((5-oxopyrrolidin-2-yl)methoxy)pyrido[3,4-g]isoquinolin-1(2H)-one]
34600 | 1430 | – | – | 1460 | 14000 | 9090 | NCC#Cc1c[nH]c(=O)c2cc3ccnc(OC[C@@H]4CCC(=O)N4)c3cc12 [I-29, (S)-4-(3-aminoprop-1-yn-1-yl)-6-((5-oxopyrrolidin-2-yl)methoxy)pyrido[3,4-g]isoquinolin-1(2H)-one]
– | 212 | – | – | 2020 | 2260 | 18300 | O=C1CC[C@@H](COc2nccc3cc4c(=O)[nH]cc(C(F)(F)F)c4cc23)N1 [I-30, (S)-6-((5-oxopyrrolidin-2-yl)methoxy)-4-(trifluoromethyl)pyrido[3,4-g]isoquinolin-1(2H)-one]
531 | 35 | – | – | 78.8 | – | 78.2 | CC[C@@H]1[C@H](F)C(=O)N[C@@H]1COc1nccc2cc3c(=O)[nH]cc(C#N)c3cc12 [I-47, 6-(((2S,3S,4S)-3-ethyl-4-fluoro-5-oxopyrrolidin-2-yl)methoxy)-1-oxo-1,2-dihydropyrido[3,4-g]isoquinoline-4-carbonitrile]
